Holding throughout (experiment): relative viability (nuclei count vs DMSO), 5 days (fraction); higher = more cells survive
Compound in test [1]: COc1cc([C@@H]2c3cc4c(cc3[C@@H](O[C@@H]3O[C@@H]5CO[C@@H](C)O[C@H]5[C@H](O)[C@H]3O)[C@H]3COC(=O)[C@H]23)OCO4)cc(OC)c1O [Etoposide] + O=C(c1cc(Cc2n[nH]c(=O)c3ccccc23)ccc1F)N1CCN(C(=O)C2CC2)CC1 [Olaparib] (partner 8 µM)
A digest of the protocol: (§1)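 Lung cancer cell lines were seeded in 1536-well plates and dosed by pin tool the next day, with either a single drug or a fixed anchor-drug dose combined with five library-drug doses (not always all listed) spaced in √10 steps. Five days later, one step fixed the cells and stained their nuclei (final 0.05% Triton X-100, 1% formaldehyde, 1 ug/ml Hoechst), and nuclei were counted on 4× images. Relative viability is the nuclei count in treated wells divided by the count in vehicle wells, and each value is the median of duplicate plates.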

Compound in test [2]: COc1cc([C@@H]2c3cc4c(cc3[C@@H](O[C@@H]3O[C@@H]5CO[C@@H](C)O[C@H]5[C@H](O)[C@H]3O)[C@H]3COC(=O)[C@H]23)OCO4)cc(OC)c1O [Etoposide] + C[C@@H](Oc1cc(-c2cnn(C3CCNCC3)c2)cnc1N)c1c(Cl)ccc(F)c1Cl [Crizotinib] (partner 1 µM)
In a few lines: as §1

Compound in test [3]: CC1=C(N=C(N=C1N)[C@H](CC(=O)N)NC[C@@H](C(=O)N)N)C(=O)N[C@@H]([C@H](C2=CN=CN2)OC3C(C(C(C(O3)CO)O)O)OC4C(C(C(C(O4)CO)O)OC(=O)N)O)C(=O)N[C@H](C)[C@H]([C@H](C)C(=O)N[C@@H]([C@@H](C)O)C(=O)NCCC5=NC(=CS5)C6=NC(=CS6)C(=O)NCCC[S+](C)C)O [Bleomycin] + CS(=O)(=O)CCNCc1ccc(-c2ccc3ncnc(Nc4ccc(OCc5cccc(F)c5)c(Cl)c4)c3c2)o1 [Lapatinib] (partner 2 µM)
As to conditions: main component drawn. A digest of the protocol:
as §1

Compound in test [4]: CC1=C(N=C(N=C1N)[C@H](CC(=O)N)NC[C@@H](C(=O)N)N)C(=O)N[C@@H]([C@H](C2=CN=CN2)OC3C(C(C(C(O3)CO)O)O)OC4C(C(C(C(O4)CO)O)OC(=O)N)O)C(=O)N[C@H](C)[C@H]([C@H](C)C(=O)N[C@@H]([C@@H](C)O)C(=O)NCCC5=NC(=CS5)C6=NC(=CS6)C(=O)NCCC[S+](C)C)O [Bleomycin] + Cc1nc(Nc2ncc(C(=O)Nc3c(C)cccc3Cl)s2)cc(N2CCN(CCO)CC2)n1 [Dasatinib] (partner 0.075 µM)
To be noted: main component drawn. In a few lines: as §1

In the case of H3255, the relative viability in test [1] (first compound 0.01 µM) was 0.524; in test [1] (first compound 0.03162 µM) it was 0.571; in test [1] (first compound 0.1 µM), 0.588; in test [1] (first compound 0.3162 µM) it was 0.379; in test [1] (first compound 1 µM) it was 0.286; in test [2] (first compound 0.01 µM), 0.802. Also, the relative viability was found to be 0.841 in test [2] (first compound 0.03162 µM); 0.667 in test [2] (first compound 0.1 µM); 0.537 in test [2] (first compound 0.3162 µM); 0.231 in test [2] (first compound 1 µM); 0.244 in test [3] (first compound 0.01 µM); 0.235 in test [3] (first compound 0.03162 µM). The relative viability in test [3] (first compound 0.1 µM) came to 0.259; in test [3] (first compound 0.3162 µM), 0.214; in test [3] (first compound 1 µM) it was 0.173; in test [4] (first compound 0.01 µM), 0.356; in test [4] (first compound 0.03162 µM), 0.448; in test [4] (first compound 0.1 µM), 0.426. The relative viability worked out at 0.332 in test [4] (first compound 0.3162 µM) and 0.327 in test [4] (first compound 1 µM).
Turning to NCI-H1792, the relative viability in test [1] (first compound 0.01 µM) was found to be 0.348; in test [1] (first compound 0.03162 µM) it was 0.248; in test [1] (first compound 0.3162 µM), 0.212; in test [1] (first compound 1 µM) it was 0.152; in test [2] (first compound 0.01 µM), 1.02; in test [2] (first compound 0.03162 µM), 0.913. Besides, the relative viability in test [2] (first compound 0.1 µM) is 0.825; in test [2] (first compound 0.3162 µM), 0.831; in test [2] (first compound 1 µM) it was 0.623; in test [3] (first compound 0.01 µM), 0.848; in test [3] (first compound 0.03162 µM), 0.798; in test [3] (first compound 0.1 µM), 0.841. For the same cell line, the relative viability was determined as 0.326 in test [3] (first compound 0.3162 µM); 0.139 in test [3] (first compound 1 µM); 0.698 in test [4] (first compound 0.01 µM); 0.805 in test [4] (first compound 0.03162 µM); 1.01 in test [4] (first compound 0.1 µM); 0.439 in test [4] (first compound 0.3162 µM). The relative viability in test [4] (first compound 1 µM) worked out at 0.283.
In the case of SK-MES-1, the relative viability in test [1] (first compound 0.01 µM) is 0.697; in test [1] (first compound 0.03162 µM) it was 0.785; in test [1] (first compound 0.1 µM) it was 0.56; in test [1] (first compound 0.3162 µM), 0.257; in test [1] (first compound 1 µM) it was 0.19; in test [2] (first compound 0.01 µM), 0.943. Further, the relative viability in test [2] (first compound 0.03162 µM) was determined as 0.957; in test [2] (first compound 0.1 µM), 0.887; in test [2] (first compound 0.3162 µM) it was 0.433; in test [2] (first compound 1 µM), 0.273; in test [3] (first compound 0.01 µM), 0.506; in test [3] (first compound 0.03162 µM), 0.438. Besides, the relative viability in test [3] (first compound 0.1 µM) was determined as 0.407; in test [3] (first compound 0.3162 µM) it was 0.303; in test [3] (first compound 1 µM), 0.255; in test [4] (first compound 0.01 µM), 0.329; in test [4] (first compound 0.03162 µM), 0.316; in test [4] (first compound 0.1 µM), 0.232. Further, the relative viability in test [4] (first compound 0.3162 µM) is 0.0893; in test [4] (first compound 1 µM) it was 0.0963.
NCI-H1650: the relative viability in test [1] (first compound 0.01 µM) is 0.797; in test [1] (first compound 0.03162 µM) it was 0.652; in test [1] (first compound 0.1 µM), 0.723; in test [1] (first compound 0.3162 µM) it was 0.341; in test [1] (first compound 1 µM), 0.198; in test [2] (first compound 0.01 µM), 0.874. Moreover, the relative viability worked out at 0.776 in test [2] (first compound 0.03162 µM); 0.634 in test [2] (first compound 0.1 µM); 0.253 in test [2] (first compound 0.3162 µM); 0.16 in test [2] (first compound 1 µM); 0.535 in test [3] (first compound 0.01 µM); 0.321 in test [3] (first compound 0.03162 µM). Moreover, the relative viability in test [3] (first compound 0.1 µM) worked out at 0.235; in test [3] (first compound 0.3162 µM) it was 0.147; in test [3] (first compound 1 µM) it was 0.16; in test [4] (first compound 0.01 µM) it was 0.263; in test [4] (first compound 0.03162 µM), 0.281; in test [4] (first compound 0.1 µM), 0.145. Besides, the figures for the relative viability in test [4] (first compound 0.3162 µM) and in test [4] (first compound 1 µM) were 0.124 and 0.128, respectively.
Turning to NCI-H2126, the relative viability in test [1] (first compound 0.01 µM) came out at 0.882; in test [1] (first compound 0.03162 µM) it was 0.938; in test [1] (first compound 0.1 µM), 0.658; in test [1] (first compound 0.3162 µM), 0.585; in test [1] (first compound 1 µM) it was 0.336; in test [2] (first compound 0.01 µM) it was 0.998. In addition, the relative viability is 1.05 in test [2] (first compound 0.03162 µM); 0.765 in test [2] (first compound 0.1 µM); 0.888 in test [2] (first compound 0.3162 µM); 0.328 in test [2] (first compound 1 µM); 0.768 in test [3] (first compound 0.01 µM); 0.76 in test [3] (first compound 0.03162 µM). For the same cell line, the relative viability came to 0.735 in test [3] (first compound 0.1 µM); 0.638 in test [3] (first compound 0.3162 µM); 0.548 in test [3] (first compound 1 µM); 0.596 in test [4] (first compound 0.01 µM); 0.619 in test [4] (first compound 0.03162 µM); 0.665 in test [4] (first compound 0.1 µM). Further, the relative viability in test [4] (first compound 0.3162 µM) stood at 0.357; in test [4] (first compound 1 µM) it was 0.276.
Turning to HCC-366, the relative viability in test [1] (first compound 0.01 µM) worked out at 0.292; in test [1] (first compound 0.03162 µM), 0.304; in test [1] (first compound 0.1 µM) it was 0.217; in test [1] (first compound 0.3162 µM), 0.0515; in test [1] (first compound 1 µM) it was 0.0449; in test [2] (first compound 0.01 µM), 0.43. For the same cell line, the relative viability in test [2] (first compound 0.03162 µM) is 0.434; in test [2] (first compound 0.1 µM), 0.217; in test [2] (first compound 0.3162 µM) it was 0.0627; in test [2] (first compound 1 µM), 0.0226; in test [3] (first compound 0.01 µM), 0.52; in test [3] (first compound 0.03162 µM) it was 0.337. Further, the relative viability was 0.212 in test [3] (first compound 0.1 µM); 0.0246 in test [3] (first compound 0.3162 µM); 0.0258 in test [3] (first compound 1 µM); 0.504 in test [4] (first compound 0.01 µM); 0.412 in test [4] (first compound 0.03162 µM); 0.444 in test [4] (first compound 0.1 µM). The results for the relative viability in test [4] (first compound 0.3162 µM) and in test [4] (first compound 1 µM) were 0.0996 and 0.0443, respectively.
Turning to NCI-H838, the relative viability came to 0.757 in test [1] (first compound 0.01 µM); 0.782 in test [1] (first compound 0.03162 µM); 0.64 in test [1] (first compound 0.1 µM); 0.31 in test [1] (first compound 0.3162 µM); 0.2 in test [1] (first compound 1 µM); 0.85 in test [2] (first compound 0.01 µM). For the same cell line, the relative viability was determined as 0.846 in test [2] (first compound 0.03162 µM); 0.973 in test [2] (first compound 0.1 µM); 0.522 in test [2] (first compound 0.3162 µM); 0.345 in test [2] (first compound 1 µM); 0.478 in test [3] (first compound 0.01 µM); 0.229 in test [3] (first compound 0.03162 µM). The relative viability in test [3] (first compound 0.1 µM) was determined as 0.184; in test [3] (first compound 0.3162 µM), 0.159; in test [3] (first compound 1 µM), 0.152; in test [4] (first compound 0.01 µM) it was 0.267; in test [4] (first compound 0.03162 µM) it was 0.265; in test [4] (first compound 0.1 µM), 0.243. In addition, the figures for the relative viability in test [4] (first compound 0.3162 µM) and in test [4] (first compound 1 µM) were 0.153 and 0.175, respectively.
